Here are results for one compound from patent US20260263442A1, “METHOD FOR TREATING L-DOPA-INDUCED DYSKINESIA USING BEFIRADOL” (Neurolixis, Inc., priority 2023, published 2026).

For series [1] the following is noted: both, human, in vivo.
The test system of series [2] is quality of life in PD patients with LID. The series is described as follows: Parkinson's Disease Questionnaire (PDQ39), Phase 2a study. The format is in vivo, human. The source says:
The PDQ39-item patient reported outcome of health status and quality of life and is the most frequently used disease-specific health status measure for PD. The questionnaire assesses how often people affected by PD experience difficulties across 8 dimensions of daily living. The standard PDQ39 assesses quality of life over the previous month. In this study the initial time period assessed at the Baseline Visit would be the previous month, with subsequent assessments for the intervening period since the last clinic visit (about 3 weeks). The 8 quality of life dimensions covered in the questionnaire are: • Mobility (10 items #1-10) • ADL (6 items #11-16) • Emotional Well Being (6 items #17-22) • Stigma (4 items #23-26) • Social Support (3 items #27-29) • Cognition (4 items #30-33) • Communications (3 items #34-36) • Bodily Discomfort (3 items #37-39) Individual items are rated by the patient on a scale of […]. Dimension scores are calculated on a scale of 0 to 100. The total score and individual dimension scores would be assessed for change from baseline.

The next series deals with T1, 5-HT1A receptors (Homo sapiens, UniProt P08908).
T1 sequence (P08908 1-422): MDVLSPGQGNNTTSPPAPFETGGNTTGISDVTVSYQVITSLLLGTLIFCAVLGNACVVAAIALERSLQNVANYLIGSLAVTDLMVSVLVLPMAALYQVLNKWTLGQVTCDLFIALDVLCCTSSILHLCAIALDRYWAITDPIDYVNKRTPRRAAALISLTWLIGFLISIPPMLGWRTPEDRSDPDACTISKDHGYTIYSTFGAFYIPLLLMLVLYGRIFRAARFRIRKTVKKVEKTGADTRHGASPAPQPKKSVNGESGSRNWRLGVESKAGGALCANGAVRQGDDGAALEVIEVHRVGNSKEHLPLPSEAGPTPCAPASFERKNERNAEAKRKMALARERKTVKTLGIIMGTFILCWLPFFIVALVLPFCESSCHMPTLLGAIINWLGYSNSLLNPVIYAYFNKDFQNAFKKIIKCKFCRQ
Conditions: cited from earlier work.

Series [3] concerns overall PD symptoms in PD patients with LID. The series is classed as in vivo, human. An excerpt: The CGI-C is a clinician-oriented scale that assesses the total improvement in the patient's condition relative to the clinical global impression of severity (CGI-S) scale conducted at baseline. The CGI-C rates the patient's condition from 0 to 7, with a rating of 0 indicating “no assessment”, a rating of 1 indicating “very much better”, and a rating of 7 indicating “very much worse”.

The test system of series [4] is pain in PD patients with LID. Description: King's Parkinson's Disease Pain Scale (KPPS), Phase 2a study. The format is in vivo, human. An excerpt: The KPPS is a rater-interview-based scale conducted with the patient and caregiver (if available). It is a 14-item scale covering 7 domains of pain: • Musculoskeletal pain • Chronic pain • Fluctuation-related pain • Nocturnal pain • Orofacial pain • Edema/swelling; discoloration • Radicular pain Each item is scored by severity (0-3; none to very severe) multiplied by frequency (0-4; never to all the time), for an item sub score of 0-12, resulting in a total score from 0 to 168. Ratings are based on the previous month, or in the case of this study, the intervening period since the previous clinic visit (about 3 weeks). Treatment effects would be analyzed as change from baseline for total score and for individual pain domains.

A further series deals with MPTP-treated marmosets. The settings on record: cited from earlier work.
The conditions of series [5]: in vivo; cited from earlier work.
In series [6] the test system is overactive bladder in PD patients with LID. The series is described as follows: ICIQ Overactive Bladder Module (ICIQ-OAB), Phase 2a study. The format is in vivo, human. The source says: The ICIQ-OAB provides a brief and robust measure to assess the impact of symptoms of overactive bladder on quality of life and outcome of treatment. It is a 4-item patient reported outcome covering 4 domains of bladder function: frequency, nocturia, urgency, and urge urinary incontinence. Each item is scored by frequency of 0-4, for a total score of 0-16. Ratings would be based on the previous month or since the last clinic visit. Efficacy would be assessed as change from the baseline total score.

Where [7] appears, read: change from baseline at day 28 (end of up-titration period), Per Protocol Set, n = 15.
Where [8] appears, read: change from baseline at day 42 (end of stable dosing period), Per Protocol Set, n = 15.

Where two headings read alike, the source gives them in different places.

`Cc1ccc(CNCC2(F)CCN(C(=O)c3ccc(F)c(Cl)c3)CC2)nc1` [NLX-112]: the “Befiradol Cmax in female subjects, higher than males by” value in series [1] is reported as 20%-40%. Besides, in series [2] (Days 28 or 42), the “Quality of life (PDQ39 score), effect” value is on record as “no consistent statistically significant effect”. Also, the “PDQ39, Δ D28, mean (S.D.)” value in series [2] (setting [7]) is given as −1.5 (8.0). In series [2] (setting [8]), the “PDQ39, Δ D42, mean (S.D.)” value is listed as −0.6 (6.5). For the same compound, the “5-HT1A receptor agonist profile” value at 5-HT1A receptors is “exceptional selectivity for 5-HT1A receptors and full agonist properties”; on 5-HT1A receptors (listed as Befiradol) it was “selective and potent”. For the same compound, the “Cellular signaling (biased agonist profile)” value on 5-HT1A receptors (via G-proteins) is given as “preferentially activates specific cellular signaling cascades”. For the same compound, the “CGI-C, proportion of patients improved (minimally, much or very much improved)” value in series [3] (day 28) was determined as 33%; in series [3] (day 42), 53%. In series [4] (Baseline, Per Protocol Set, n = 15), the “KPPS, Baseline, mean (S.D.)” value is listed as 16.0 (9.9). Moreover, in series [4] (Day 42), the “KPPS total score, change from baseline” value is recorded as “statistically significant improvement”. For the same compound, the “KPPS, Δ D28, mean (S.D.)” value in series [4] (change from baseline at day 28 (end of up-titration period), Per Protocol Set, n = 15, **p < 0.01 vs baseline (LMM)) is reported as −4.6 (7.5)**. Also, the “KPPS, Δ D42, mean (S.D.)” value in series [4] (change from baseline at day 42 (end of stable dosing period), Per Protocol Set, n = 15, **p < 0.01 vs baseline (LMM)) is reported as −4.8 (7.8)**. Further, the Disability scores result in the series on MPTP-treated marmosets is given as “reduces disability scores”. The “Blood concentrations that could be associated with side effects, such as dizziness” value in series [5] is “higher than 15 ng/ml”. Moreover, the “Incontinence (ICIQ-OAB), effect” value in series [6] (Days 28 or 42) is given as “no consistent statistically significant effect”. Moreover, the “ICIQ-OAB, Δ D28, mean (S.D.)” value in series [6] (setting [7]) is 0.7 (6.5). In addition, the “ICIQ-OAB, Δ D42, mean (S.D.)” value in series [6] (setting [8]) is recorded as −0.8 (8.02).
